Source: patent US20140357512A1, “HISTONE DEACETYLASE (HDAC) BIOMARKERS IN MULTIPLE MYELOMA” (priority 2013, published 2014)

System: human myeloma cell line MM.1S
Assay: SILAC acetylated-lysine peptide profiling, HDAC inhibitor vs DMSO (light/heavy ratio)
Type: cell-based
Text: An embodiment of the invention comprises utilizing the SILAC method in order to quantitate changes in protein expression between two or more populations of cells. The SILAC method is a technique based on mass spectrometry that detects differences in protein abundance among samples using non-radioactive isotopic labeling. The SILAC method is known in the art, and described in detail in Ong et al., “Stable Isotope Labeling by Amino Acids in Cell Culture, SILAC, as a Simple and Accurate Approach to Expression Proteomics”, Molecular & Cellular Proteomics, vol. 1, pp. 376-386 (2002), which is incorporated herein by reference in its entirety.
Briefly, the SILAC method involves growing two populations of cells in cell culture. The first population of cells is grown in growth media containing normal amino acids (“normal media”). The second population of cells is grown in media lacking a standard essential amino acid (such as lysine), but is then supplemented with a non-radioactive, isotopically labeled form of that essential amino acid (such as lysine labeled with ^13C atoms, rather than normal ^12C atoms), which is called “heavy media”. When the two populations of cells are each growing in the medium, they incorporate the amino acids into all of their proteins. The growth of cells maintained in the heavy media is no different from that in normal media. All peptides containing the heavy amino acids are heavier than their normal counterparts. The cells from each of the two populations of cells are lysed. The lysates from each of the two cell populations are then combined. The combined cell lysates are then analyzed by mass spectrometry. Pairs of chemically identical peptides of different stable isotope composition can be differentiated in a mass spectrometer due to their difference in mass. The ratio of peak intensities in the mass spectrum for such peptide pairs reflects the abundance ratio for the two proteins.
This example describes SILAC studies that were performed to compare the effects of three different HDAC inhibitors (Compound A, Compound B, and tubastatin A) to a control on a human multiple myeloma cell line. The HDAC inhibitors were also compared amongst themselves to determine differences in their effects.
A human myeloma cell line MM.1S was grown using either ^12C (light) or ^13C (heavy) lysine containing culture medium. The “heavy” cells were treated with DMSO as the control, and the “light” cells were treated with a single HDAC inhibitor at 37° C. for 6 hours. The heavy and light cells were lysed, and the lysates were mixed in 1:1 ratio and digested with the protease trypsin. The acetylated lysine containing peptides (due to the action of the HDAC inhibitor) in the digested peptide pool were captured by a non-specific anti-acetylated lysine antibody cocktail (the antibodies identify both light and heavy acetylated peptides), and subjected to mass spectrometry analysis in order to identify thousands of individual peptides.
Thousands of peptides were identified in pairs (^12C and ^13C) due to their known mass differences. The amino acid sequence and quantitative ratio (Light/Heavy) of a given peptide in two differentially treated cell lysates were then determined and annotated with their possible protein (gene) sources.
As stated above, three HDAC inhibitors (Compound A, Compound B, and Tubastatin A) were used. Thus, the SILAC method was performed three times, with a different HDAC inhibitor compared to a control each time. Accordingly, there are three pairs of quantitative data in the table below, i.e., Compound A:DMSO, Compound B:DMSO, and Tubastatin A:DMSO. A cut-off of 1.30 fold of change (increase or decrease) was then used to determine “changed” or “+” in the table, and any peptides with a fold of change less than 1.3 fold were determined to be “unchanged” or “0” in the table. Those peptides that were not identified were marked as “NA” in the table. […]

**Q.** Which “L/H ratio of acetylated peptide TVGQLYK(ac)EQLAK” value (SEQ ID NO: 731, Isoform 1 of Myosin-9 [651], MYH9) does the source give for `O=C(CCCCCCNC(=O)c1cnc(N(c2ccccc2)c2ccccc2)nc1)NO` [Compound A, 2-(diphenylamino)-N-(7-(hydroxyamino)-7-oxoheptyl)pyrimidine-5-carboxamide] here?
**A.** 0.75 log 2

**Q.** What about the “L/H ratio of acetylated peptide AAETCQEPK(ac)EFR” value (SEQ ID NO: 732, NADH dehydrogenase [ubiquinone] 1 alpha subcomplex assembly factor 4 [91], NDUFAF4) of the same compound?
**A.** 0.75 log 2

**Q.** And the “L/H ratio of acetylated peptide VVLIGDSGVGK(ac)SNLLSR” value (SEQ ID NO: 733, Ras-related protein Rab-11B [24], RAB11B)?
**A.** 0.76 log 2

**Q.** What about the “L/H ratio of acetylated peptide SGK(ac)YVLGYK” value (SEQ ID NO: 734, 60S ribosomal protein L30 [26], RPL30) of the same compound?
**A.** 0.76 log 2

**Q.** What about the “L/H ratio of acetylated peptide ILMEHIHK(ac)LK” value (SEQ ID NO: 735, 60S ribosomal protein L19 [144], RPL19) of the same compound?
**A.** 0.76 log 2

**Q.** And the “L/H ratio of acetylated peptide EK(ac)VFYSLMR” value (SEQ ID NO: 736, Epoxide hydrolase 1 [288], EPHX1)?
**A.** 0.78 log 2

**Q.** And the “L/H ratio of acetylated peptide K(ac)FDQLLAEEK” value (SEQ ID NO: 737, Isoform 1 of Myosin-9 [1445], MYH9)?
**A.** 0.78 log 2

**Q.** What about the “L/H ratio of acetylated peptide FVEFDMK(ac)PVCK” value (SEQ ID NO: 738, Isoform 2 of LIM and senescent cell antigen-like-containing domain protein 2 [326], LIMS2) of the same compound?
**A.** 0.79 log 2

**Q.** What about the “L/H ratio of acetylated peptide K(ac)GFITVDGR” value (SEQ ID NO: 739, Laminin subunit alpha-1 [2808], LAMA1) of the same compound?
**A.** 0.79 log 2

**Q.** What about the “L/H ratio of acetylated peptide KAEAQIAAK(ac)NLDK” value (SEQ ID NO: 740, Aspartate aminotransferase mitochondrial [90], GOT2) of the same compound?
**A.** 0.80 log 2

**Q.** What about the “L/H ratio of acetylated peptide DK(ac)QFVAK” value (SEQ ID NO: 741, Staphylococcal nuclease domain-containing protein 1 [341], SND1) of the same compound?
**A.** 0.80 log 2

**Q.** And the “L/H ratio of acetylated peptide AGACNTVIK(ac)QLMR” value (SEQ ID NO: 742, Isoform SERCA3B of Sarcoplasmic/endoplasmic reticulum calcium ATPase 3 [476], ATP2A3)?
**A.** 0.82 log 2

**Q.** And the “L/H ratio of acetylated peptide KQQAK(ac)FDECVLDK” value (SEQ ID NO: 743, NADH dehydrogenase [ubiquinone] 1 alpha subcomplex subunit 8 [106], NDUFA8)?
**A.** 0.82 log 2

**Q.** And the “L/H ratio of acetylated peptide ALCTGEK(ac)GFGYK” value (SEQ ID NO: 744, Peptidyl-prolyl cis-trans isomerase F mitochondrial [86], PPIF)?
**A.** 0.82 log 2

**Q.** What about the “L/H ratio of acetylated peptide IYK(ac)SDGIK” value (SEQ ID NO: 745, ADP/ATP translocase 2 [166], SLC25A5) of the same compound?
**A.** 0.83 log 2

**Q.** What about the “L/H ratio of acetylated peptide DEGGK(ac)AFFK” value (SEQ ID NO: 746, ADP/ATP translocase 2 [268], SLC25A5) of the same compound?
**A.** 0.84 log 2

**Q.** What about the “L/H ratio of acetylated peptide SYLK(ac)EFR” value (SEQ ID NO: 747, Isoform 1 of Trans-23-enoyl-CoA reductase [291], TECR) of the same compound?
**A.** 0.85 log 2

**Q.** What about the “L/H ratio of acetylated peptide VPK(ac)TAENFR” value (SEQ ID NO: 748, Peptidyl-prolyl cis-trans isomerase D [43], PPID) of the same compound?
**A.** 0.85 log 2

**Q.** What about the “L/H ratio of acetylated peptide VNCLDK(ac)FWHK” value (SEQ ID NO: 749, Isoform 1 of LIM and SH3 domain protein 1 [23], LASP1) of the same compound?
**A.** 0.85 log 2

**Q.** And the “L/H ratio of acetylated peptide KGEDFVK(ac)TLK” value (SEQ ID NO: 750, Malate dehydrogenase mitochondrial [335], MDH2)?
**A.** 0.85 log 2

**Q.** And the “L/H ratio of acetylated peptide EAEFTK(ac)SIAK” value (SEQ ID NO: 751, Signal peptidase complex subunit 2 [191], LOC653566, SPCS2)?
**A.** 0.86 log 2

**Q.** And the “L/H ratio of acetylated peptide SGYYK(ac)VLGK” value (SEQ ID NO: 752, 60S ribosomal protein L27a [110], RPL27A)?
**A.** 0.86 log 2

**Q.** What about the “L/H ratio of acetylated peptide YVLGYK(ac)QTLK” value (SEQ ID NO: 753, 60S ribosomal protein L30 [32], RPL30) of the same compound?
**A.** 0.87 log 2

**Q.** What about the “L/H ratio of acetylated peptide FEDK(ac)TVAYTEQK” value (SEQ ID NO: 754, Protein disulfide-isomerase A3 [218], PDIA3) of the same compound?
**A.** 0.88 log 2

**Q.** And the “L/H ratio of acetylated peptide IVNALK(ac)SQVDK” value (SEQ ID NO: 755, Ornithine aminotransferase mitochondrial [102], OAT)?
**A.** 0.88 log 2

**Q.** What about the “L/H ratio of acetylated peptide ILEFFGLK(ac)K” value (SEQ ID NO: 756, Protein disulfide-isomerase [308], P4HB) of the same compound?
**A.** 0.89 log 2

**Q.** And the “L/H ratio of acetylated peptide LCGQDLNK(ac)TSR” value (SEQ ID NO: 757, Isoform 1 of UDP-N-acetylglucosamine--dolichyl-phosphate N-acetylglucosaminephospho-, DPAGT1)?
**A.** 0.89 log 2

**Q.** And the “L/H ratio of acetylated peptide” value (SFDK(ac)NLYR (SEQ ID NO: 477), DNA replication licensing factor MCM4 [220], MCM4)?
**A.** −0.55 log 2

**Q.** What about the “L/H ratio of acetylated peptide LFAK(ac)[…] (SEQ ID NO: 98)” value (SFPQ [319], log 2 scale, drug vs DMSO) of the same compound?
**A.** 0.00

**Q.** What about the “L/H ratio of acetylated peptide […](ac)GK (SEQ ID NO: 99)” value (SFPQ [330], log 2 scale, drug vs DMSO) of the same compound?
**A.** 0.00

**Q.** And the “L/H ratio of acetylated peptide GFGFIK(ac)LESR (SEQ ID NO: 97)” value (SFPQ [338], log 2 scale, drug vs DMSO)?
**A.** 0.00

**Q.** And the “L/H ratio of acetylated peptide […](ac)MILIGR (SEQ ID NO: 100)” value (SFXN1 [86], log 2 scale, drug vs DMSO)?
**A.** 0.00

**Q.** What about the “L/H ratio of acetylated peptide […](ac)DK (SEQ ID NO: 103)” value (SLC25A5 [92], log 2 scale, drug vs DMSO) of the same compound?
**A.** 0.00

**Q.** What about the “L/H ratio of acetylated peptide AFFK(ac)GAWSNVLR (SEQ ID NO: 102)” value (SLC25A5 [272], log 2 scale, drug vs DMSO) of the same compound?
**A.** 0.00

**Q.** And the “L/H ratio of acetylated peptide […](ac)ANVAK (SEQ ID NO: 101)” value (SLC25A10 [173], log 2 scale, drug vs DMSO)?
**A.** 0.00

**Q.** What about the “L/H ratio of acetylated peptide TWEK(ac)LLLAAR (SEQ ID NO: 104)” value (SNORA6, RPSAP15, SNORA62, RPSA [57], log 2 scale, drug vs DMSO) of the same compound?
**A.** 0.00
